Assay [1] has as its target T1, P2Y purinoceptor 12 (Homo sapiens, UniProt Q9H244). The experiment in a line: Ability to displace [3H]2-MeS-ADP from human Purinergic receptor P2Y12. In kind it is tissue-based.
The species entered for assay [2] is Homo sapiens. The experiment in a line: Ability to inhibit platelet aggregation. In kind it is functional, organism-based.
Assay [3] deals with T1, P2Y purinoceptor 12. Put plainly: Compound was evaluated for its ability to inhibit human Purinergic receptor P2Y12 expressed in Xenopus oocyte.

Structures are written as SMILES. A value given as a limit tells only on which side of the number the result lay.

T1 sequence (Q9H244 whole entry): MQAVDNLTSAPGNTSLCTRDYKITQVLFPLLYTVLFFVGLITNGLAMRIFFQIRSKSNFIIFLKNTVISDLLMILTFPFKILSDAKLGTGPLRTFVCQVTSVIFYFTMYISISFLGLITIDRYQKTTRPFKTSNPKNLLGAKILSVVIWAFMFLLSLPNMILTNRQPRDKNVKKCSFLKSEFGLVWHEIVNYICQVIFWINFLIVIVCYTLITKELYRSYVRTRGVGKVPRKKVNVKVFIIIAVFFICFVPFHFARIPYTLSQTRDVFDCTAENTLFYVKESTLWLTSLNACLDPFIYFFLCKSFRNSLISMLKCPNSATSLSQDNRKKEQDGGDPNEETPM

One may read the IC50 as the midpoint of a concentration-inhibition curve. In the case of `CS(=O)(=O)c1ccc2c(c1)SC1=NS(=O)(=O)C(C(=O)CS(=O)(=O)Nc3nc4ccc(S(C)(=O)=O)cc4s3)=C(O)N12`, the results for the IC50 in assay [1] and in assay [2] were 1.1 µM and 2.9 µM, respectively. Regarding `Cc1ccc2c(c1)SC1=NS(=O)(=O)C(C(=O)CS(=O)(=O)Nc3nc4ccc(C)cc4s3)=C(O)N12`, in assay [2], it took 9.5 µM to reach half-maximal inhibition (IC50).

With `O=C1/C(=C(\O)CS(=O)(=O)Nc2nc3ccc(C4CCCCC4)cc3s2)S(=O)(=O)N=C2Sc3cc(C4CCCCC4)ccc3N12`, the IC50 in assay [1] and in assay [2] was > 120 µM each time. For the molecule `O=S1(=O)C=C(O)N2C(=N1)Sc1cc(OC(F)(F)F)ccc12`, the IC50 in assay [1] was > 120 µM; in assay [2] it was > 50 µM. Turning to `O=C1/C(=C(\O)CS(=O)(=O)Nc2nc3ccc(Oc4ccccc4)cc3s2)S(=O)(=O)N=C2Sc3cc(Oc4ccccc4)ccc3N12`, the IC50 was > 50 µM in assay [1] and > 24 µM in assay [2]. The molecule `COc1ccc2c(c1)SC1=NS(=O)(=O)C(C(=O)CS(=O)(=O)Nc3nc4ccc(OC)cc4s3)=C(O)N12` registered a half-maximal inhibitory concentration (IC50) in assay [2] of 1.5 µM.

On to `O=C1/C(=C(\O)CS(=O)(=O)Nc2nc3ccc(Cl)cc3s2)S(=O)(=O)N=C2Sc3cc(Cl)ccc3N12`, for which the figures for the IC50 in assay [1] and in assay [2] were 35 µM and 64 µM, respectively. Consider `CCOc1ccc2c(c1)SC1=NS(=O)(=O)C(C(=O)CS(=O)(=O)Nc3nc4ccc(OCC)cc4s3)=C(O)N12`, for which the IC50 in assay [3] was 0.04 µM; in assay [2], 0.18 µM. For the molecule `O=C1/C(=C(\O)CS(=O)(=O)Nc2nc3ccc(F)cc3s2)S(=O)(=O)N=C2Sc3cc(F)ccc3N12`, the figures for the IC50 in assay [1] and in assay [2] were 37 µM and > 120 µM, respectively.

Consider `O=C1/C(=C(\O)CS(=O)(=O)Nc2nc3ccc(-c4ccccc4)cc3s2)S(=O)(=O)N=C2Sc3cc(-c4ccccc4)ccc3N12`, for which the 50% inhibitory concentration (IC50) is > 50 µM in assay [1] and > 24 µM in assay [2]. In the case of `O=C1/C(=C(\O)CS(=O)(=O)Nc2nc3ccc([N+](=O)[O-])cc3s2)S(=O)(=O)N=C2Sc3cc([N+](=O)[O-])ccc3N12`, the IC50 was 35 µM in assay [1] and 50 µM in assay [2]. For the molecule `O=C1/C(=C(\O)CS(=O)(=O)Nc2nc3ccccc3s2)S(=O)(=O)N=C2Sc3ccccc3N12`, the IC50 was determined as 21 µM in assay [1] and 26 µM in assay [2]. For `CCOC(=O)c1ccc2c(c1)SC1=NS(=O)(=O)C(C(=O)CS(=O)(=O)Nc3nc4ccc(C(=O)OCC)cc4s3)=C(O)N12` the same measures were 1.8 µM and 0.8 µM.

For the molecule `COc1cccc2c1N1C(O)=CS(=O)(=O)N=C1S2`, the IC50 in assay [1] was 77 µM; in assay [2], > 120 µM.

The values are drawn from ChEMBL document CHEMBL1134134, “Novel tricyclic benzothiazolo[2,3-c]thiadiazine antagonists of the platelet ADP receptor (P2Y(12))” (Bioorg Med Chem Lett, 2001).
